The target in one experiment is Bcl-2 protein (histag-Bcl-2, UniProtKB P10415) (Homo sapiens (Human), UniProt P10415). The experiment is described as follows: Inhibition of Bcl-2 by the fluorescence polarisation technique. The format is binding. The conditions noted are these: incubation for 2 hours, read-out: IC50 (nM) Bcl-2 FP. In short, it runs like this:
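Fluorescence polarisation competition: His-tagged Bcl-2 (2.50×10^−8 M final) with fluorescein-labelled peptide (1.00×10^−8 M final) in 10 mM Hepes, 150 mM NaCl, 0.05% Tween20, pH 7.4. Increasing compound concentrations were added. Polarisation was read after 2 h incubation.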
For orientation: In fluorescence polarisation assays a small probe gives low polarisation when free and higher when bound to something large.

Experiment [1] deals with RS4;11 leukaemia tumour line. The experiment can be described thus: In vitro cytotoxicity (Microculture Tetrazolium Assay). The format is cell-based. The conditions noted are these: Homo sapiens, RS4-11, 48 h, RS4;11 cells, exposed for 48 hours, cell viability; read-out: IC50 (nM) MTT RS4;11. On the procedure:
The cytotoxicity studies were carried out on the RS4;11 leukaemia tumour line.
The cells are distributed onto microplates and exposed to the test compounds for 48 hours.
The cell viability is then quantified by a colorimetric assay, the Microculture Tetrazolium Assay (Cancer Res., 1987, 47, 939-942).

Experiment [2] has as its system cleaved (activated) form of caspase 3 in RS4;11 leukaemia cell xenograft tumours. The experiment is described as follows: Quantification of the cleaved form of caspase 3 in vivo (MSD ELISA). Further details: species or system mice (SCID strain). The conditions noted are these: Mus musculus, cleaved caspase 3 MSD test, oral route, tumour removed after 2 hours, read-out: Activation factor ± SEM (versus control). How it is done:
The ability of the compounds of the invention to activate caspase 3 is evaluated in a xenograft model of RS4;11 leukaemia cells.
1×10^7 RS4;11 cells are grafted sub-cutaneously into immunosuppressed mice (SCID strain). 25 to 30 days after the graft, the animals are treated orally with the various compounds. After treatment, the tumour masses are recovered and lysed, and the cleaved (activated) form of caspase 3 is quantified in the tumour lysates.
The quantification is carried out using the “Meso Scale Discovery (MSD) ELISA platform” test, which specifically assays the cleaved form of caspase 3. It is expressed in the form of an activation factor corresponding to the ratio between the quantity of cleaved caspase 3 in the treated mice divided by the quantity of cleaved caspase 3 in the control mice.
(In general: ELISA stands for enzyme-linked immunosorbent assay.)

SMILES strings stand for the structures. Structures can show the parent of a compound that is named as a salt.

The term IC50 denotes the concentration at which inhibition is half-maximal.

Sequence of Bcl-2 protein (P10415 whole entry): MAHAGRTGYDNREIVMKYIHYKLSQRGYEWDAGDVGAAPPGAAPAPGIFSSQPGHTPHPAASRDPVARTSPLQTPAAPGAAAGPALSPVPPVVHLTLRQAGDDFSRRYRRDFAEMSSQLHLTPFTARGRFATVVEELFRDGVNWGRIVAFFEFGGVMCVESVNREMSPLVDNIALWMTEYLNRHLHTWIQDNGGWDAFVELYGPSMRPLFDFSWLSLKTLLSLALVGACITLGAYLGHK

Regarding `Cc1c(C(=O)N(c2ccc(O)cc2)c2cnc3c(ccn3C)c2)cc(-c2cc(Cl)ccc2C(=O)N2Cc3ccccc3C[C@H]2CN2CCOCC2)n1C` [Example 71, 5-(5-Chloro-2-{[(3S)-3-(morpholin-4-ylmethyl)-3,4-dihydroisoquinolin-2(1H)-yl]carbonyl}phenyl)-N-(4-hydroxyphenyl)-1,2-dimethyl-N-(1-methyl-1H-pyrrolo[2,3-b]pyridin-5-yl)-1H-pyrrole-3-carboxamide hydrochloride], the IC50 at Bcl-2 protein amounted to 6.1 nM; in experiment [1], 12.9 nM. For the same compound, the fold induction at 25 mg/kg in experiment [2] was 46.8 ± 16.1.

Regarding `Cc1c(C(=O)N(c2ccc(O)cc2)c2cc(C#N)n(C)c2)cc(-c2cc(F)ccc2C(=O)N2Cc3ccccc3C[C@H]2CN2CCOCC2)n1C` [Example 230, N-(5-Cyano-1-methyl-1H-pyrrol-3-yl)-5-(5-fluoro-2-{[(3S)-3-(morpholin-4-ylmethyl)-3,4-dihydroisoquinolin-2(1H)-yl]carbonyl}phenyl)-N-(4-hydroxyphenyl)-1,2-dimethyl-1H-pyrrole-3-carboxamide hydrochloride], the figures for the IC50 (on Bcl-2 protein; in experiment [1]) were 5.1 nM and 18.3 nM, respectively. In addition, the fold induction at 25 mg/kg in experiment [2] was found to be 42.2 ± 9.3.

Turning to `Cc1c(C(=O)N(c2ccc(O)cc2)c2cnc3c(c2)CCN3C)cc(-c2cc(Cl)ccc2C(=O)N2Cc3ccccc3C[C@H]2CN2CCOCC2)n1C` [Example 388, 5-(5-Chloro-2-{[(3S)-3-(morpholin-4-ylmethyl)-3,4-dihydroisoquinolin-2(1H)-yl]carbonyl}phenyl)-N-(4-hydroxyphenyl)-1,2-dimethyl-N-(1-methyl-2,3-dihydro-1H-pyrrolo[2,3-b]pyridin-5-yl)-1H-pyrrole-3-carboxamide dihydrochloride], the IC50 amounted to 3.6 nM at Bcl-2 protein and 16.5 nM in experiment [1]. In experiment [2], the fold induction at 25 mg/kg stood at 85.7 ± 3.7.

The values above are taken from patent US9108983B2, “Pyrrole compounds, a process for their preparation and pharmaceutical compositions containing them” (LES LABORATOIRES SERVIER, priority 2013, dated 2015).
